Assay results published in ChEMBL document CHEMBL2407091, “Effect of the orthoquinone moiety in 9,10-phenanthrenequinone on its ability to induce apoptosis in HCT-116 and HL-60 cells” (2013).
Activity calls are given as the source filed them. The calls are words filed in the database; no cut-off is given here.

Legend:
[1] = tested on: HCT-116; assay: Cytotoxicity against human HCT116 cells after 24 hrs by MTT assay; format: functional; conditions: HCT-116, 24 h, read-out: LC50 (the source's name)
[2] = tested on: HL-60; assay: Cytotoxicity against human HL60 cells after 24 hrs by WST-1 assay; format: functional; conditions: HL-60, 24 h, read-out: LC50 (the source's name)
[3] = tested on: HL-60; assay: Cytotoxicity against human HL60 cells at 5 uM after 24 hrs by WST-1 assay; format: functional, cell-based
[4] = tested on: HL-60; assay: Induction of apoptosis in human HL60 cells assessed as caspase-3 activation at 10 uM after 4 hrs by FACS flow cytometric analysis; format: functional, cell-based
[5] = tested on: HL-60; assay: Induction of apoptosis in human HL60 cells assessed as DNA fragmentation at 10 uM after 6 hrs by electrophoretic analysis; format: functional, cell-based
[6] = tested on: HCT-116; assay: Cytotoxicity against human HCT116 cells at >2.5 uM after 24 hrs by MTT assay; format: functional, cell-based

SMILES | CC50 [1] [µM] | CC50 [2] [µM] | Activity [3] | Activity [4] | Activity [5] | Activity [6]
O=c1[nH]c2ccccc2c2ccccc12 | > 10 | > 10 | – | – | – | –
c1ccc2c(c1)CCc1ccccc1-2 [DIHYDROPHENANTHRENE] | > 10 | > 10 | – | – | – | –
c1ccc2c(c1)ccc1ccccc12 [PHENANTHRENE] | > 10 | > 10 | – | – | – | –
O=C1C(=O)c2ccccc2-c2ccccc21 [9,10-PHENANTHRENEQUINONE] | 1.43 | 3.38 | Active | Active | Active | Active
O=C1C(=O)c2cccc3cccc1c23 [ACENAPHTHOQUINONE] | > 10 | > 10 | – | – | – | –
O=C1C(=O)c2cccnc2-c2ncccc21 | 0.73 | 1.57 | – | Active | Active | –
Oc1cc2ccccc2c2ccccc12 | > 10 | > 10 | – | – | – | –
O=C(C(=O)c1ccccc1)c1ccccc1 [BENZIL] | > 10 | > 10 | – | – | – | –
O=c1c(=O)c2cccc3ccc4cccc1c4c32 | 0.86 | 3.41 | – | Active | Active | –
O=C1C=Cc2ccccc2C1=O [1,2-NAPHTHOQUINONE] | 9.2 | 7.14 | – | – | – | –
